These are literature values, as cited in US20150025006A1, “Pharmaceutical Combinations Including Anti-Inflammatory and Antioxidant Conjugates Useful for Treating Metabolic Disorders” (Genmedica Therapeutics SL, priority 2011, published 2015).

Data set [1] has as its system Zucker fa/fa rats or ob/ob mice. The conditions noted are these: 120 mg/kg/day, subcutaneous infusion, 3-4 weeks.
The subject of the next data set is human diabetic patients. Particulars: 4.5 g/day of salsalate.

For the compound `O=C(O)c1ccccc1O` [Salicylate], the anti-diabetic effects entry in data set [1] was “anti-diabetic effects, reduction in fasting blood glucose, and glucose tolerance improvement”. With `O=C(Oc1ccccc1C(=O)O)c1ccccc1O` [salsalate], the “side effects, such as tinnitus, enhanced by” value with human diabetic patients is recorded as 66%.
